How the values were obtained:
breast cancer cells = assay: Cell cycle analysis by flow cytometry; type: cell-based, human; conditions: 50 μM
Protocol: Cells (1×10^6 cells/ml) were starved in serum-free medium for 24 hrs, and released in 10% serum-medium with or without compound 1 (50 μM) for 16-24 hrs for cell cycle transition. Cells were then fixed in 70% ethanol at 4° C. for 1 hr, resuspended in 1 ml PBS containing 20 μg/ml propidium iodide, 20 μg/ml RNase A, incubated for 30 min at room temperature, and analyzed with a Becton Dickinson LSR-II at the Flow Cytometry Core Laboratory at the University of Maryland. Ten thousand events per sampl were collected and analyzed using the Cell-Quest (BD Biosciences).

sE-Cad = sE-Cad production by Western blot; type: cell-based, human
Protocol: MCF7 cells were grown to subconfluence in the presence or absence of doxycycline for 72 hr in full media as described above. Cells were then treated in minimal DMEM (Sigma, D5030) containing 0.1% BSA, 1% L-glutamine, 2% Tet-Approved FBS, and 1 mM glucose for 16 hours followed by treatment with 2 ng/mL TGFβ (R&D Systems, 240-B-002) for 48 hours in the presence or absence of EGTA to examine sE-Cad expression levels, TAZ localization, and HER2 expression levels. Cells were washed with PBS and scraped from plates. Cytoplasmic and nuclear lysates were obtained using the Low/High Salt extraction method. Cytoplasmic extracts were obtained by resuspending cells in NP40 containing Hypotonic Buffer (10 mM HEPES pH 7.4, 1.5 mM MgCl2, 10 mM KCI, 0.5% NP40) followed by a 30 min incubation on ice and centrifiugation. Nuclear extracts were obtained by resuspending the nuclear pellet in an equal volume of low salt buffer (10 mM HEPES, 25% glycerol, 1.5 mM MgCl2, 20 mM KCI, 0.2 mM EDTA) followed by high salt buffer (10 mM HEPES, 25% glycerol, 1.5 mM MgCl2, 800 mM KCl, 0.2 mM EDTA) followed by vortexing, 30 min incubation on ice, another vortex, and centrifugation. Samples were resolved on 4-12% Bis-Tris polyacrylamide gradient gels (Invitrogen) and transferred to PVDF membranes (Millipore). […] Protein levels were normalized to actin and quantified using NIH Image-J software.
To assay for sE-Cad levels, MCF7 Tet.OFF cells were grown in the absence or presence of doxycycline for 3 days and then transfected with TAZ siRNA #1 using Lipofectamine-2000. […] After 72 hours, nuclear and cytoplasmic extracts were obtained using the High/Low salt extraction method described above and analyzed for sE-Cad, TAZ, and RUNX2. Protein levels were normalized to actin and quantified using NIH Image-J software.
MCF7 Tet.OFF cells were pretreated in the absence or presence of doxycycline for 3 days. […] Nuclear and cytoplasmic extracts were obtained using High/Low salt extraction method and protein levels analyzed by Western blot (see above).

Lats1/2 = Lats1/2 phosphorylation (Hippo signaling); type: cell-based, human; conditions: compound 1, 24 hours
Protocol: In FIG. 22A HCC1428 luminal BC cells that express E-Cadherin were treated with recombinant soluble E-Cadherin (rsE-Cad) for 24 hr and total cell extracts were analyzed for phosphorylation of the Lats1/2 tumor suppressors. Phospho.Lats1/2 and total Lats1/2 levels declined with rsE-Cad treatment consistent with TAZ translocation to the nucleus, where it acts as an oncogene with RUNX2. […] MCF7 cells expressing RUNX2 (Tet.OFF) were treated with compound 1 drug for 24 hours and total cell extracts were analyzed for phosphp.Lats1/2, total Lats1/2, and RUNX2 expression.

[1] = Maximum tolerated dose (MTD) test; type: in vivo; conditions: up to 20 mg/kg, 2 weeks, athymic nude mice
Excerpt: Animal maintenance and experimental protocols are in accordance with the guidelines of the University of Maryland's Institutional Animal Care and Use Committee.

mammary tumors = assay: MMTV-PyMT transgenic mouse model; type: in vivo, MMTV-PyMT mice
Protocol: For the MMTV polyoma middle T antigen (PyMT) mouse model, female mice were purchased from Jackson Laboratory. As mice developed first palpable mammary tumors after 5 weeks of age, mice were randomly assigned to 4 treatment groups at 6 weeks of age and received i.p. injections of compound 1 (1, 5 and 20 mg/kg/group) or equivalent volumes of vehicle (10% DMSO/90% PBS) (200 μl) twice a week. Palpable tumors were monitored every 1 to 2 days until 12 weeks of age to determine tumor incidence (number of tumors per mouse) and onset (the age of palpable tumors). Tumor weight was quantified at the final day after mice were euthanized and tumors were excised. Tumor volume [(length×width^2)/2] was measured by caliper.

O=C(O)C1C2C=CC(C2)C1C(=O)Nc1ccc(Cl)c(Cl)c1 (stereo not shown) [compound 1, 3-(N-(3,4-dichlorophenyl)carbamoyl)-5-norbornene-2-carboxylic acid]
cell cycle distribution (breast cancer cells): increased cell populations at the G1 phase with reduction at the S phase | decrease in sE-Cad production (sE-Cad; RUNX2 negative cells (doxycycline+)): 2 fold | decline of sE-Cad levels (sE-Cad; RUNX2 positive cells, 50 μM, by 72 hr): ~20 fold | increase of sE-Cad production (sE-Cad; RUNX2 positive cells, 50 μM, first 24 hr): 3.5 fold | phosphorylation of the Lats1/2 tumor suppressors (Lats1/2): increase in phosphorylation | influence on body weight or general health [1]: no detectable influence | tumor incidence per mouse at the final day (mean±SEM) (mammary tumors; 1 mg/Kg): 4.14±0.88 | tumor onset, Frequency of mode (mammary tumors; 1 mg/kg): 8 | tumor onset, Mode (mammary tumors; 1 mg/kg): 43 | tumor onset, range (mammary tumors; 1 mg/kg): 15˜45 | mice with less than 3 tumors (mammary tumors; 5 mg/Kg): 40% | tumor incidence per mouse at the final day (mean±SEM) (mammary tumors; 5 mg/Kg): 3.05±2.57 | tumor onset, Frequency of mode (mammary tumors; 5 mg/kg): 11 | tumor onset, Mode (mammary tumors; 5 mg/kg): 43 | tumor onset, range (mammary tumors; 5 mg/kg): 1˜45 | fraction of mice with over 6 tumors (mammary tumors; 20 mg/Kg): no mice | mice with less than 3 tumors (mammary tumors; 20 mg/Kg): 55% | tumor incidence per mouse at the final day (mean±SEM) (mammary tumors; 20 mg/Kg): 2.57±0.72 | tumor onset, Frequency of mode (mammary tumors; 20 mg/kg): 9 | tumor onset, Mode (mammary tumors; 20 mg/kg): 40 | tumor onset, range (mammary tumors; 20 mg/kg): 22˜45 | tumor weight (mammary tumors; 1, 5, 20 mg/Kg): reduction | staining of Ki67 in tumor sections versus control mice (mammary tumors; IHC): much weaker | onset of the tumors (mammary tumors; i.p., up to 20 mg/kg, 45 days): significantly delayed | body weight and general health (mammary tumors; up to 20 mg/kg, MMTV-PyMT mice): did not significantly decrease body weight
